# Results as given in ChEMBL document CHEMBL4715821, “Discovery of 4-ethoxy-7H-pyrrolo[2,3-d]pyrimidin-2-amines as potent, selective and orally bioavailable LRRK2 inhibitors” (Bioorg Med Chem Lett, 2018).
# Legend:
# [1] = target: Serine/threonine-protein kinase STK11 (Homo sapiens) (UniProt Q15831); experiment: Inhibition of wild-type human full length LKB1 (M1 to Q433 residues) expressed in bacterial expression system assessed as residual activity at 1 uM by Kinomescan method relative to control
# [2] = target: Mitogen-activated protein kinase 14 (Homo sapiens) (UniProt Q16539); experiment: Inhibition of wild-type human full length p38-alpha (M1 to S360 residues) expressed in bacterial expression system assessed as residual activity at 1 uM by Kinomescan method relative to control
# [3] = target: Receptor-type tyrosine-protein kinase FLT3 (Homo sapiens) (UniProt P36888); experiment: Inhibition of wild-type human partial length FLT3 (V592 to Y969 residues) expressed in bacterial expression system assessed as residual activity at 1 uM by Kinomescan method relative to control
# [4] = target: Myosin light chain kinase 2, skeletal/cardiac muscle (Homo sapiens) (UniProt Q9H1R3); experiment: Inhibition of MLCK2 (unknown origin) assessed as residual activity at 1 uM by Kinomescan method relative to control
# [5] = target: G protein-coupled receptor kinase 3 (Homo sapiens) (UniProt P35626); experiment: Inhibition of wild-type human full length GRK3 (M1 to L688 residues) expressed in mammalian expression system assessed as residual activity at 1 uM by Kinomescan method relative to control
# [6] = target: Mitogen-activated protein kinase 8 (Homo sapiens) (UniProt P45983); experiment: Inhibition of wild-type human full length JNK1 (M1 to Q384 residues) expressed in mammalian expression system assessed as residual activity at 1 uM by Kinomescan method relative to control
# [7] = target: Tyrosine-protein kinase SYK (Homo sapiens) (UniProt P43405); experiment: Inhibition of wild-type human partial length SYK (D354 to N635 residues) expressed in bacterial expression system assessed as residual activity at 1 uM by Kinomescan method relative to control
# [8] = target: Serine/threonine-protein kinase A-Raf (Homo sapiens) (UniProt P10398); experiment: Inhibition of ARAF (unknown origin) assessed as residual activity assessed as residual activity at 1 uM relative to control
# [9] = Ratio of total drug concentration in brain to blood in Han-Wistar rat at 10 mg/kg, po; assay type: ADME, organism-based
# [10] = target: Ephrin type-B receptor 4 (Homo sapiens) (UniProt P54760); experiment: Inhibition of wild-type human partial length EPHB4 (H585 to G892 residues) expressed in bacterial expression system assessed as residual activity at 1 uM by Kinomescan method relative to control
# [11] = target: Protein kinase C epsilon type (Homo sapiens) (UniProt Q02156); experiment: Inhibition of PKCepsilon (unknown origin) assessed as residual activity at 1 uM by Kinomescan method relative to control
# [12] = target: Mitogen-activated protein kinase kinase kinase 10 (Homo sapiens) (UniProt Q02779); experiment: Inhibition of wild-type human partial length MLK2 (V52 to W380 residues) expressed in bacterial expression system assessed as residual activity at 1 uM by Kinomescan method relative to control
# [13] = target: Ephrin type-A receptor 8 (Homo sapiens) (UniProt P29322); experiment: Inhibition of human wild type partial length EPHA8 (Q608 to C920 residues) expressed in bacterial expression system assessed as residual activity at 1 uM by Kinomescan method relative to control
# [14] = target: Serine/threonine-protein kinase Sgk3 (Homo sapiens) (UniProt Q96BR1); experiment: Inhibition of wild-type human partial length SGK3 (M119 to L496 residues) expressed in mammalian expression system assessed as residual activity at 1 uM by Kinomescan method relative to control
# [15] = target: Serine/threonine-protein kinase MARK1 (Homo sapiens) (UniProt Q9P0L2); experiment: Inhibition of wild-type human partial length MARK1 (Q30 to T341 residues) expressed in bacterial expression system assessed as residual activity at 1 uM by Kinomescan method relative to control
# [16] = target: Fibroblast growth factor receptor 2 (Homo sapiens) (UniProt P21802); experiment: Inhibition of wild type human partial length FGFR2 (D457 to E769 residues) expressed in bacterial expression system assessed as residual activity at 1 uM by Kinomescan method relative to control
# [17] = In vivo inhibition of LRRK2 in Han-Wistar rat assessed as reduction in Ser935 phosphorylation in brain at 30 mg/kg, po by Western blot analysis; assay type: functional; design: scale not given: the % may be the effect or the level left
# [18] = target: Serine/threonine-protein kinase ULK3 (Homo sapiens) (UniProt Q6PHR2); experiment: Inhibition of wild-type human partial length ULK3 (M1 to Q290 residues) expressed in mammalian expression system assessed as residual activity at 1 uM by Kinomescan method relative to control
# [19] = target: Serine/threonine-protein kinase 16 (Homo sapiens) (UniProt O75716); experiment: Inhibition of wild-type human partial length STK16 (G11 to I305 residues) expressed in bacterial expression system assessed as residual activity at 1 uM by Kinomescan method relative to control
# [20] = target: Cyclin-dependent kinase 1/cyclin B1 (Homo sapiens) (UniProt P06493+P14635); experiment: Inhibition of wild-type human full length CDK1 (M1 to M297 residues)/Cyclin B expressed in mammalian expression system assessed as residual activity at 1 uM by Kinomescan method relative to control
# [21] = Unbound fraction in Han-Wistar rat brain at 10 mg/kg, po; assay type: ADME, organism-based
# [22] = target: Aurora kinase C (Homo sapiens) (UniProt Q9UQB9); experiment: Inhibition of wild-type human full length AURKC (M1 to S275 residues) expressed in bacterial expression system assessed as residual activity at 1 uM by Kinomescan method relative to control
# [23] = target: Tyrosine-protein kinase JAK2 (Homo sapiens) (UniProt O60674); experiment: Inhibition of wild-type human partial length JAK2 JH1 catalytic domain (A829 to G1132 residues) expressed in mammalian expression system assessed as residual activity at 1 uM by Kinomescan method relative to control
# [24] = target: Serine/threonine-protein kinase 38-like (Homo sapiens) (UniProt Q9Y2H1); experiment: Inhibition of wild-type human partial length NDR2 (N34 to E447 residues) expressed in bacterial expression system assessed as residual activity at 1 uM by Kinomescan method relative to control
# [25] = target: Serine/threonine-protein kinase OSR1 (Homo sapiens) (UniProt O95747); experiment: Inhibition of wild-type human full length OSR1 (M1 to S527 residues) expressed in mammalian expression system assessed as residual activity at 1 uM by Kinomescan method relative to control
# [26] = target: Serine/threonine-protein kinase D3 (Homo sapiens) (UniProt O94806); experiment: Inhibition of wild-type human partial length PRKD3 (S543 to E863 residues) expressed in bacterial expression system assessed as residual activity at 1 uM by Kinomescan method relative to control
# [27] = target: Protein kinase C gamma type (Homo sapiens) (UniProt P05129); experiment: Inhibition of PKCgamma (unknown origin) assessed as residual activity at 1 uM by Kinomescan method relative to control
smiles,measurement,setting,value
CCOc1nc(Nc2ccc(C(=O)N3CCOCC3)cc2OC)nc2[nH]ccc12,Activity,[1],99%
same,Activity,[2],99.9%
same,Activity,[3],92.6%
same,Activity,[4],95.6%
same,Activity,[5],97.2%
same,Activity,[6],40.5%
same,Activity,[7],92.1%
same,Activity,[8],95.9%
same,Kp,[9],0.24
same,Activity,[10],96.3%
same,Activity,[11],95%
same,Activity,[12],100%
same,Activity,[13],94.4%
same,Activity,[14],93.7%
same,Activity,[15],98.5%
same,Activity,[16],111%
same,Activity,[17],50%
same,Activity,[18],82%
same,Activity,[19],98.7%
same,Activity,[20],92.2%
same,fraction unbound,[21],0.01
same,Activity,[22],97.3%
same,Activity,[23],96.3%
same,Activity,[24],96.8%
same,Activity,[25],101%
same,Activity,[26],63.7%
same,Activity,[27],101%
